“And” between values parts separate entries of the source, which are not always exact repeats. Identical values can stand only once.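 Values below derive from 48-hour exposures of cells grown in 96-well plates, with endpoints linearly interpolated between the two concentrations bracketing the appropriate inhibition level. GI50: concentration for 50% inhibition of growth. Definition used: TGI = concentration required for complete inhibition of growth.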
Tests used:
Assay in all cases: DTP human tumour cell line panel, 48 h
[1] = test system: A498 renal
[2] = test system: A549 NSCLC
[3] = test system: ACHN renal
[4] = test system: EKVX NSCLC
[5] = test system: HS 578T breast
[6] = test system: HT29 colon
[7] = test system: MCF7 breast
[8] = test system: NCI-H23 lung
[9] = test system: OVCAR-8 ovarian
[10] = test system: SN12C renal
[11] = test system: SNB-75 CNS
[12] = test system: SR leukemia
[13] = test system: UACC-257 melanoma
[14] = test system: DU-145 prostate
[15] = test system: SK-OV-3 ovarian

SMILES	TGI [1]	TGI [2]	TGI [3]	TGI [4]	TGI [5]	TGI [6]	TGI [7]	TGI [8]	TGI [9]	TGI [10]	TGI [11]	TGI [12]	TGI [13]	TGI [14]	TGI [15]	GI50 [1]	GI50 [3]	GI50 [6]	GI50 [10]
CC(C)(C)c1cc(C(C)(C)C)c(SSc2c(C(C)(C)C)cc(C(C)(C)C)c(O)c2O)c(O)c1O	27.5 µM	24 µM	26.6 µM	35.7 µM	> 100 µM	31.5 µM	27.5 µM	22.8 µM	47.7 µM	25.3 µM	41.9 µM	10.4 µM	21.7 µM						
C[C@]12CC/C(=N\OCCN3CCCC3)C=C1CCC1C2CC[C@@]2(C)C1CC[C@]2(C)O (stereo partly drawn)	4.7 µM	42.5 µM	50.3 µM	34 µM	43.7 µM	5.69 µM	> 100 µM	35.8 µM	31.6 µM	21.3 µM	11.9 µM		17.8 µM	39.5 µM	44.5 µM				
COC(=O)C1=CCC[C@H]2[C@@]1(COC(C)=O)CC[C@@H](C)[C@]2(C)CC(=O)c1ccoc1	> 50 µM	> 50 µM	> 50 µM	> 50 µM	> 50 µM	> 50 µM	> 50 µM	47.2 µM	> 50 µM	> 50 µM	> 50 µM		> 50 µM	> 50 µM	> 50 µM				
CCCCCCCCCCCC(=O)OCC(O)CO (stereo not drawn)	> 100 µM	> 100 µM	> 100 µM	> 100 µM	> 100 µM	> 100 µM	> 100 µM	> 100 µM	> 100 µM	> 100 µM	> 100 µM		> 100 µM	> 100 µM	> 100 µM				
CCOC(=O)c1sc2c(c1OC(=O)c1ccco1)c(=O)n(-c1ccccc1)c(=S)n2-c1ccccc1	60.4 µM	> 100 µM	83.8 µM	55.4 µM	> 100 µM	> 100 µM	> 100 µM	> 100 µM	70.8 µM	84.4 µM	> 100 µM		> 100 µM	> 100 µM	> 100 µM				
CC[n+]1c(/C=C/c2cc(C(=O)OC)n3c2sc2ccccc23)sc2ccccc21		38.3 µM	36.2 µM	38.9 µM		33 µM				49.3 µM	32.5 µM		33.1 µM		34 µM				
COc1cc(C(C)c2cc3c(cc2OCCCCCOc2cc4c(cc2C(C)c2cc(OC)c(OC)c(OC)c2)OCO4)OCO3)cc(OC)c1OC (stereo not drawn)	> 100 µM	> 100 µM	> 100 µM	> 100 µM		> 100 µM		> 100 µM	> 100 µM	> 100 µM	> 100 µM	> 100 µM	> 100 µM						
C=Cc1c(-c2ccccc2)cnc2[nH]c3ccccc3c12	> 50 µM	> 50 µM	> 50 µM	> 50 µM		> 50 µM		> 50 µM	> 50 µM	> 50 µM	46 µM	> 50 µM	> 50 µM		> 50 µM				
C1=C(c2ccccc2)NC2=N[C@H]3CCCC[C@@H]3N2C1c1ccccc1 (stereo partly drawn)	30.2 µM		26.6 µM	29.3 µM	41.2 µM	14.8 µM		25.8 µM	27.4 µM		24.3 µM	39.3 µM	27.7 µM	29.6 µM	29.3 µM				
O=C(CC(=O)n1nc(-c2ccccc2)c(N=Nc2ccc([N+](=O)[O-])cc2)c1-c1ccccc1)Nc1ccc(Cl)cc1		56.3 µM	19.2 µM	> 100 µM		58.5 µM		> 100 µM	> 100 µM	> 100 µM	> 100 µM	> 100 µM	> 100 µM		42.3 µM				
COc1cccc(C2c3cc4c(cc3OC(N3CCCC3)C2c2ccccc2)OCO4)c1O (stereo not drawn)		61.4 µM	25.8 µM	73.3 µM	8.53 µM	26.2 µM	32.6 µM	36.2 µM	61.2 µM	31 µM		32.7 µM	24.4 µM	90.5 µM					
CC(=O)/C=C1/C(=O)C(CC(C)C)=C1CC(C)C	> 100 µM	> 100 µM	> 100 µM	> 100 µM	> 100 µM	> 100 µM	> 100 µM	> 100 µM	> 100 µM	> 100 µM	> 100 µM		> 100 µM	> 100 µM	> 100 µM				
COc1ccc(/C=C2\CC3C4CC=C5C[C@@H](N6CCCC6)CC[C@]5(C)C4CC[C@]3(C)[C@H]2O)cc1OC (stereo partly drawn)	17 µM	17.6 µM	16 µM	16.9 µM	26.9 µM	15.3 µM	14.8 µM	17.6 µM	23.8 µM	18.3 µM	22.9 µM		15.4 µM	22.4 µM	17.5 µM				
Cc1nsc2cc(Cl)n(C)c(=O)c12	> 100 µM	> 100 µM	> 100 µM	> 100 µM		> 100 µM		> 100 µM	> 100 µM	> 100 µM	> 100 µM	> 100 µM	> 100 µM		> 100 µM				
CCCCCCCCC#CCCCCCCC(F)C(=O)O (stereo not drawn)	> 100 µM	> 100 µM	> 100 µM	> 100 µM	> 100 µM	> 100 µM		> 100 µM	> 100 µM		> 100 µM	> 100 µM	> 100 µM	> 100 µM	> 100 µM				
COc1ccc2c(c1)C1Oc3ccccc3CC1CO2 (stereo not drawn)	96.2 µM	> 100 µM	> 100 µM	> 100 µM	> 100 µM	> 100 µM	> 100 µM	> 100 µM	> 100 µM	> 100 µM	98.7 µM		> 100 µM	> 100 µM	> 100 µM				
CCN1C(c2ccccc2)=CC(c2ccccc2)(C(Cl)(Cl)Cl)C=C1c1ccccc1	54.4 µM	> 100 µM	> 100 µM	83 µM	> 100 µM	21.8 µM	> 100 µM	93.4 µM	> 100 µM	> 100 µM	> 100 µM		> 100 µM	> 100 µM					
COc1ccccc1OC/C(N=Cc1cccnc1)=N/NC(=O)c1ccncc1	> 100 µM	> 100 µM	> 100 µM	> 100 µM	> 100 µM	> 100 µM	> 100 µM	> 100 µM	> 100 µM		> 100 µM		> 100 µM	> 100 µM	> 100 µM				

SMILES	TGI [1]	TGI [2]	TGI [3]	TGI [4]	TGI [5]	TGI [6]	TGI [7]	TGI [8]	TGI [9]	TGI [10]	TGI [11]	TGI [12]	TGI [13]	TGI [14]	TGI [15]	GI50 [1]	GI50 [3]	GI50 [6]	GI50 [10]
COc1cc(CNc2ccc(C)cc2)cc(OC)c1OC	> 74.2 µM	> 100 µM	> 100 µM	> 100 µM		0.852 µM		3.08 µM		> 87.6 µM	> 100 µM	> 100 µM	> 100 µM		0.825 µM and 1.3 µM	> 37.5 µM	0.674 µM and 0.216 µM	0.156 µM	0.585 µM and 3.71 µM
CC(=O)NC1=C(NCCO)C(=O)c2ccccc2C1=O		> 50 µM	> 50 µM	> 50 µM		> 50 µM		> 50 µM	> 50 µM	> 50 µM	> 50 µM	> 50 µM	> 50 µM		> 50 µM				
O=C(O)C(Cc1ccc(O)cc1)N=Cc1nc(-c2ccccc2)oc1O (stereo not drawn)	> 100 µM	> 100 µM	> 100 µM	> 100 µM		> 100 µM		> 100 µM	> 100 µM		> 100 µM		> 100 µM		> 100 µM				
COc1ccccc1NC(=S)Nc1ccccn1	> 100 µM	> 100 µM		> 100 µM	> 100 µM	> 100 µM	> 100 µM		> 100 µM		> 100 µM	> 100 µM	> 100 µM		> 100 µM				
Nc1ccc(C(=O)NN2C(=O)C(Cl)C2c2ccc(O)cc2)cc1 (stereo not drawn)	56.5 µM	> 100 µM	> 100 µM	36.1 µM		45.1 µM		35.2 µM	68.8 µM	36.6 µM	70.4 µM		> 100 µM		46.1 µM				
COC(=O)/C=C1/OC(c2ccccc2)=C(Br)C1=O	> 100 µM		> 100 µM	> 100 µM		50.6 µM	> 100 µM	> 100 µM	> 100 µM	89.2 µM	> 100 µM	> 100 µM	> 100 µM	> 100 µM	> 100 µM				
O=C(c1ccsc1)c1nccc2c1cnc1ccccc12	> 100 µM	> 100 µM	> 100 µM	88.4 µM	70.6 µM	> 100 µM	> 100 µM	> 100 µM	> 100 µM	> 100 µM	88.2 µM		> 100 µM	> 100 µM	> 100 µM				
O=C1C[C@@H]2[C@@H](C=CC23CCCC3)N1O	> 100 µM	> 100 µM	> 100 µM	> 100 µM		> 100 µM		> 100 µM	> 100 µM	> 100 µM	> 100 µM		> 100 µM		> 100 µM				
CC(C)CC1C(=O)OC(C)(C)OC1=O	> 100 µM	> 100 µM	> 100 µM	> 100 µM	> 100 µM	> 100 µM	> 100 µM	> 100 µM	> 100 µM	> 100 µM	> 100 µM		> 100 µM	> 100 µM	> 100 µM				
COc1cc(Br)c(/C=N/N=C(\N)NO)cc1OC	78.9 µM	50.2 µM	50.6 µM	> 100 µM		86.3 µM		69 µM	76 µM	83.2 µM	65.9 µM	> 100 µM	51 µM		68.8 µM				
N=c1oc2ccccc2cc1C(=O)Nc1ccccn1	> 100 µM	> 100 µM	> 100 µM	> 100 µM	> 100 µM	> 100 µM		> 100 µM	> 100 µM	> 100 µM	> 100 µM	> 100 µM	> 100 µM	> 100 µM	> 100 µM				
COC(=O)c1ccc(C)cc1C1CN=NC12Cc1c(C)cccc1C2=O (stereo not drawn)	> 100 µM	> 100 µM	> 100 µM	> 100 µM	> 100 µM	> 100 µM		> 100 µM	> 92.4 µM	> 95.6 µM	> 100 µM	> 80.2 µM	> 81.8 µM	> 100 µM	> 93.4 µM				
O=[N+]([O-])/C(C(Cl)=C(Cl)Cl)=C(\NCc1ccccc1)Sc1ccccc1	62.2 µM	> 100 µM	> 100 µM	> 100 µM	36 µM	> 100 µM	> 100 µM	40.1 µM	32.8 µM	> 100 µM	63.3 µM		> 100 µM	> 100 µM	> 100 µM				
COc1cc2c(c(OC)c1OC)[C@@H]1CCCCC[C@@H]1CCC2=O	> 100 µM	> 100 µM	> 100 µM	> 100 µM		> 100 µM		> 100 µM	> 100 µM	> 100 µM	> 100 µM	> 59.2 µM	> 100 µM		> 100 µM				
CC1CCC2C(C(=O)O[C@H]3C4C=CO[C@@H](OC5OC(CO)C(O)C(O)C5O)C4[C@@]4(CO)O[C@@H]34)=CO[C@@H](OC3OC(CO)C(O)C(O)C3O)C12 (stereo partly drawn)	> 10 µM	> 10 µM	> 10 µM	> 10 µM	> 10 µM	> 10 µM	> 10 µM	> 10 µM	> 10 µM	> 10 µM	> 10 µM		> 10 µM	> 10 µM	> 10 µM				
O=C(NC1C(=O)NC(CCc2ccccc2)NC1=O)OCc1ccccc1 (stereo not drawn)	> 100 µM	> 100 µM	> 100 µM	> 100 µM		> 100 µM	> 100 µM	> 100 µM	> 100 µM	> 100 µM	> 100 µM	> 100 µM	> 100 µM	> 100 µM					
CC1(C)COC(c2cccc(C(=O)c3ccccc3)c2)=N1		> 100 µM	> 100 µM	> 100 µM		> 100 µM	> 100 µM	> 100 µM	> 100 µM	> 100 µM		> 100 µM	> 100 µM	> 100 µM	> 100 µM				
